Laboratory results: paper PMC5602112 (2017)

Legend:
Experiment in all cases: single-round in vitro transcription termination
Settings in all cases: apparent; co-transcriptional
[1] = tested on: metI SAM-I riboswitch transcript, wild-type (RNA, riboswitch) ACUUAGAAAAUUGAAAUCGAUAUUUCUUAUCGUGAGAGGUGGAGGGACUGGCCCUUAGAAACCUCAGCAACCGGCUUGUUUUGCAUUUGCAAAGCGCCAAGGUGCUAAAUCCAGCAAGCGUUUUUUAUGCUUGGAAGAUAAGAAGAAGCGUUAAACCCCUUCUUCUUAUGAAGAAGGGGUUUUUAUUUUGAAAAGGGAAGGUGUCAGCUAUAUGUCACAGCACGUUGAAACGAAAUUAGCUCAAAUUGGGAA
[2] = tested on: metI SAM-I riboswitch transcript, U114A:A138U (RNA, riboswitch) ACUUAGAAAAUUGAAAUCGAUAUUUCUUAUCGUGAGAGGUGGAGGGACUGGCCCUUAGAAACCUCAGCAACCGGCUUGUUUUGCAUUUGCAAAGCGCCAAGGUGCUAAAACCAGCAAGCGUUUUUUAUGCUUGGAUGAUAAGAAGAAGCGUUAAACCCCUUCUUCUUAUGAAGAAGGGGUUUUUAUUUUGAAAAGGGAAGGUGUCAGCUAUAUGUCACAGCACGUUGAAACGAAAUUAGCUCAAAUUGGGAA
[3] = tested on: metI SAM-I riboswitch transcript, GUU (U114A:A137U:A138U) (RNA, riboswitch) ACUUAGAAAAUUGAAAUCGAUAUUUCUUAUCGUGAGAGGUGGAGGGACUGGCCCUUAGAAACCUCAGCAACCGGCUUGUUUUGCAUUUGCAAAGCGCCAAGGUGCUAAAACCAGCAAGCGUUUUUUAUGCUUGGUUGAUAAGAAGAAGCGUUAAACCCCUUCUUCUUAUGAAGAAGGGGUUUUUAUUUUGAAAAGGGAAGGUGUCAGCUAUAUGUCACAGCACGUUGAAACGAAAUUAGCUCAAAUUGGGAA

Compound: C[S+](CC[C@H](N)C(=O)O)C[C@H]1O[C@@H](n2cnc3c(N)ncnc32)[C@H](O)[C@@H]1O (stereo partly drawn)
- T50 [1]: ~ 183 nM
- T50 [2]: ~ 673 nM
- T50 [3]: ~ 1.3 µM
